In brackets after ≈: the same amount, converted by molar mass.
Legend:
L. major promastigotes = experiment: Leishmania promastigote assay (3H-thymidine); conditions: L. major
[1] = system: Plasmodium falciparum 3D7; experiment: Plasmodium falciparum assay (3H-phenylalanine labelling); assay type: cell-based; conditions: for IC50: Plasmodium falciparum 3D7 (Table 2), read-out: IC50
non-fastidious bacteria = experiment: Activity against non-fastidious bacteria (panel); conditions: for activity against Gram-positive non-fastidious bacteria: pathogenic Gram-positive bacteria
[2] = system: dihydroorotate dehydrogenase (DHODH); experiment: DHODH assay; assay type: biochemical; conditions: test concentration not given
Experimental: 100 μl chalcone or 0.1 M Tris-HCl pH 8.0 is added to a well in a 96-wells microtiter plate. Then 50 μl enzyme dilution is added. The microtiter plate is placed in the Powerwavex340 and the enzymatic reactions starts when adding 100 μl assay mixture. The reaction are measured every 20 sec. for 10 min. The samples with chalcones are compared with the samples with 0.1 M Tris-HCl pH 8.0 and the percent inhibition is calculated.
Enzyme dilution: The solution of recombinant purified enzyme is dissolved in 0.1 M Tris-HCl pH 8 to give an initial velocity of 0.04-0.05 ΔA/min.
2,6-dichlorophenolindophenol (DCIP)-stock solution: 40 mg DCIP and 10 ml 99% Ethanol are mixed for 10 min at RT. Then 100 μl 1.0 M Tris-HCl pH 8 and milliQ H20 are added to a final volume of 100 ml. The A600 of the DCIP-stock solution are measured in a microtiter plate on the Powerwavex340 (Bio-Tek instruments, Inc.)
[…]-stock solution: 25 mM dihydroorotate stock-solution is prepared by first dissolving in the same amount of mol NaOH and then miliQ H20 is added to the final volume.
Assay mix (10 ml solution): 600 μl of DHODH-stock solution and X ml (depending on the A600 value of stock-solution) DCIP to a final A600=2.5 are mixed. Then 0.1 M Tris-HCl pH 8.0 are added to a final volume of 10 ml.
Preparation of compound solution: A 10 mM stock-solution of compound (e.g. a chalcone derivative) is made in dimethylsulfoxid (DMSO). The compound is then diluted in 0.1 M Tris-HCl pH 8 to the test concentrations. The final DMSO concentration in the sample is 10%

[3] = system: Eschericia coli ATCC25922; experiment: MIC determination in broth microdilution assay; conditions: for MIC: G: Eschericia coli ATCC25922, NA: no activity
[4] = system: Staphylococcus aureus ATCC33591 (resistant to methicillin); experiment: MIC determination in broth microdilution assay; conditions: B: Staphylococcus aureus ATCC33591 (resistant to methicillin); NA: no activity
Eschericia coli ESS = experiment: MIC determination in broth microdilution assay; conditions: for MIC: H: Eschericia coli ESS, NA: no activity
[5] = system: Enterococcus faecium #17501 (vancomycin-resistant clinical isolate); experiment: MIC determination in broth microdilution assay; conditions: E: Enterococcus faecium #17501 (vancomycin-resistant); NA: no activity
[6] = system: Enterococcus faecalis ATCC29212; experiment: MIC determination in broth microdilution assay; conditions: D: Enterococcus faecalis ATCC29212; NA: no activity
[7] = system: Staphylococcus intermedius #2357 (clinical isolate); experiment: MIC determination in broth microdilution assay; conditions: C: Staphylococcus intermedius #2357; NA: no activity
[8] = system: Staphylococcus aureus ATCC29213; experiment: MIC determination in broth microdilution assay; conditions: A: Staphylococcus aureus ATCC29213; NA: no activity
[9] = Determination of metabolic stability (liver microsomes); assay type: in vitro ADME, Wistar rat; conditions: for Metabolic turn-over in vitro: rat liver microsomes, 20 μM, 15 min at 37° C.
Experimental: incubations were performed with Wistar rat liver microsomes (0.25 mg/ml) in 2% sodium bicarbonate solution. NADP (0.13 mg/ml), glucose-6-phosphate (0.63 mg/ml) and glucose-6-phosophate dehydrogenase (0.38 units/ml) were used as NADPH generation system and UDPGA (0.48 mg/ml) was added to include the phase II reaction, glucuronic acid conjugation, in the assay. After 5 minutes of pre-incubation the reaction was started by addition of the test article to give a final concentration of 20 μM. Samples were incubated for 15 min at 37° C. and the reactions were terminated by addition of equal volumes of acetonitrile. Blank incubations were performed at the same concentration but without addition of microsomes. Both blank and microsome-containing samples were made in replicats of three. Prior to analysis samples were centrifuged for 10 min. at 3500 rpm, HPLC system:
Initial conditions were 40% mobile phase A (acetonitrile) and 60% mobile phase B (10 mM ammonium acetate pH 9.5). During the first 20 minutes, the mobile phase was changed via a linear gradient to 90% A and 10% B. This was followed by a 5 minutes linear gradient to initial conditions, which were maintained for 5 min. The flow rate was 0.20 ml/min and injection volume 10 μl.

[10] = system: Streptococcus pneumoniae #998 (clinical isolate); experiment: MIC determination in broth microdilution assay; conditions: F: Streptococcus pneumoniae #998; NA: no activity
S. aureus ATCC29213 = experiment: Killing curve (time-kill) / broth macrodilution MIC; assay type: cell-based, Staphylococcus aureus; conditions: for bactericidal or bacteriostatic (time-kill curve): S. aureus ATCC29213, concentrations above the MIC
[11] = system: Bacteroides fragilis, Clostridium perfringens, Clostridium difficele; assay type: cell-based; conditions: single concentration of compound (100 μM)

## Cc1ccccc1-c1ccc(N2CCN(C)CC2)c(/C=C/C(=O)c2ccc(O)c(CN(C)C)c2)c1 [B208, (E)-1-(3-Dimethylaminomethyl-4-hydroxy-phenyl)-3-[2′-methyl-4-(4-methyl-piperazin-1-yl)-biphenyl-3-yl]-propenone]
L. major promastigotes
  IC50: 1.1 µM
[1]
  IC50: 0.4 µM

## COc1ccc(C(=O)/C=C/c2ccccc2)cc1 [4′MC, 4′methoxy chalcone, reference compound]
non-fastidious bacteria
  activity against Gram-positive non-fastidious bacteria: no antibacterial effect at all
[2]
  Inhibition of DHODH: 7%

## COc1ccc(C(=O)/C=C/c2cc(-c3cc(C)cc(C)c3)ccc2N2CCNCC2)c(CN(C)C)c1 [B117, (E)-1-(2-Dimethylaminomethyl-4-methoxy-phenyl)-3-(3′,5′-dimethyl-4-piperazin-1-yl-biphenyl-3-yl)-propenone]
[3]
  MIC: 18.8 µM (≈ 9.09 µg/mL)
[4]
  MIC: 4.7 µM (≈ 2.27 µg/mL)
Eschericia coli ESS
  MIC: 4.7 µM (≈ 2.27 µg/mL)
[5]
  MIC: 4.7 µM (≈ 2.27 µg/mL)
[6]
  MIC: 4.7 µM (≈ 2.27 µg/mL)
[7]
  MIC: 9.4 µM (≈ 4.55 µg/mL)
[8]
  MIC: 4.7 µM (≈ 2.27 µg/mL)

## CN(C)CCN(C)c1cccc(C(=O)/C=C/c2ccc(Cl)cc2Cl)c1 [B015, (E)-3-(2,4-Dichloro-phenyl)-1-{3-[(2-dimethylamino-ethyl)-methyl-amino]-phenyl}-propenone]
[2]
  Inhibition of DHODH: 25%

## Cc1ccccc1-c1ccc(N(C)CCCN(C)C)c(/C=C/C(=O)c2ccccc2CN(C)C)c1 [B147, (E)-1-(2-Dimethylaminomethyl-phenyl)-3-{4-[(3-dimethylamino-propyl)-methyl-amino]-2′-methyl-biphenyl-3-yl}-propenone]
[1]
  IC50: 0.6 µM

## COc1ccc(C(=O)/C=C/c2ccccc2N(C)CCN(C)C)c(F)c1 [B058, (E)-3-{2-[(2-Dimethylamino-ethyl)-methyl-amino]-phenyl}-1-(2-fluoro-4-methoxy-phenyl)-propenone]
[2]
  Inhibition of DHODH: 17%

## C=CC(C)(C)c1cc(/C=C/C(=O)c2ccc(O)cc2)c(OC)cc1O [LicA, Licochalcone A]
non-fastidious bacteria
  activity against Gram-positive non-fastidious bacteria: moderate bactericidal activity
non-fastidious bacteria; prototype pathogenic Gram-negative bacterium
  activity against Escherichia coli: only modest or no activity
[9]
  turn-over in vitro: 100%
  Metabolic turn-over in vitro: 100%
Eschericia coli ESS
  MIC: 300.0 µM (≈ 102 µg/mL)
[10]
  MIC: 75.0 µM (≈ 25.4 µg/mL)
[2]
  Inhibition of DHODH: 25%

## Cc1cc(C)cc(-c2ccc(N3CCNCC3)c(/C=C/C(=O)c3cccc(NCCN(C)C)c3)c2)c1 [B116, (E)-1-[3-(2-Dimethylamino-ethylamino)-phenyl]-3-(3′,5′-dimethyl-4-piperazin-1-yl-biphenyl-3-yl)-propenone]
[3]
  activity against E. coli ATCC25922: high activity
  MIC: 4.7 µM (≈ 2.27 µg/mL)
[4]
  MIC: 4.7 µM (≈ 2.27 µg/mL)
Eschericia coli ESS
  activity against ESS strain of E. coli: high activity
  MIC: 4.7 µM (≈ 2.27 µg/mL)
[5]
  MIC: 4.7 µM (≈ 2.27 µg/mL)
[6]
  MIC: 4.7 µM (≈ 2.27 µg/mL)
[10]
  MIC: 4.7 µM (≈ 2.27 µg/mL)
[7]
  MIC: 4.7 µM (≈ 2.27 µg/mL)
[8]
  MIC: 2.4 µM (≈ 1.16 µg/mL)

## Cc1ccccc1-c1ccc(N2CCN(C)CC2)c(/C=C/C(=O)c2ccc(O)cc2)c1 [B209, (E)-1-(4-Hydroxy-phenyl)-3-[2′-methyl-4-(4-methyl-piperazin-1-yl)-biphenyl-3-yl]-propenone]
[1]
  IC50: 0.3 µM

## Cc1cc(C)cc(-c2ccc(N3CCN(C)CC3)c(/C=C/C(=O)c3ccccc3N)c2)c1 [B115, (E)-1-(2-Amino-phenyl)-3-[3′,5′-dimethyl-4-(4-methyl-piperazin-1-yl)-biphenyl-3-yl]-propenone]
non-fastidious bacteria
  activity against Gram-positive non-fastidious bacteria: increased potency
[9]
  Metabolic turn-over in vitro: 0%
[4]
  MIC: 4.7 µM (≈ 2 µg/mL)
Eschericia coli ESS
  MIC: 9.4 µM (≈ 4 µg/mL)
[5]
  MIC: 4.7 µM (≈ 2 µg/mL)
[6]
  MIC: 4.7 µM (≈ 2 µg/mL)
[10]
  MIC: 9.4 µM (≈ 4 µg/mL)
[7]
  MIC: 4.7 µM (≈ 2 µg/mL)
[8]
  MIC: 4.7 µM (≈ 2 µg/mL)

## CN(C)CCN(C)c1cccc(C(=O)/C=C/c2ccc(Br)cc2F)c1 [B018, (E)-3-(4-Bromo-2-fluoro-phenyl)-1-{3-[(2-dimethylamino-ethyl)-methyl-amino]-phenyl}-propenone]
[2]
  Inhibition of DHODH: 22%

## COc1ccc(C(=O)/C=C/c2cc(-c3ccccc3OC)ccc2N2CCCN(C)CC2)c(F)c1 [B143, (E)-1-(2-Fluoro-4-methoxy-phenyl)-3-[2′-methoxy-4-(4-methyl-[1,4]diazepan-1-yl)-biphenyl-3-yl]-propenone]
S. aureus ATCC29213; S. aureus ATCC29213
  MIC (time-kill curve figure): 9.4 µM (≈ 4.46 µg/mL)
S. aureus ATCC29213
  bactericidal or bacteriostatic (time-kill curve): bactericidal

## COc1ccc(C(=O)/C=C/c2cc(-c3cc(C)cc(C)c3)ccc2N2CCN(C)CC2)c(CN(C)C)c1 [B102, (E)-1-(2-Dimethylaminomethyl-4-methoxy-phenyl)-3-[3′,5′-dimethyl-4-(4-methyl-piperazin-1-yl)-biphenyl-3-yl]-propenone]
non-fastidious bacteria
  activity against Gram-positive non-fastidious bacteria: increased potency
[3]
  MIC: 37.5 µM (≈ 18.7 µg/mL)
[4]
  MIC: 9.4 µM (≈ 4.68 µg/mL)
Eschericia coli ESS
  MIC: 4.7 µM (≈ 2.34 µg/mL)
[5]
  MIC: 9.4 µM (≈ 4.68 µg/mL)
[6]
  MIC: 9.4 µM (≈ 4.68 µg/mL)
[10]
  MIC: 4.7 µM (≈ 2.34 µg/mL)
[7]
  MIC: 18.8 µM (≈ 9.36 µg/mL)
[8]
  MIC: 4.7 µM (≈ 2.34 µg/mL)

## CN(C)CCN(C)c1cccc(C(=O)/C=C/c2cc(F)ccc2F)c1 [B017, (E)-3-(2,5-Difluoro-phenyl)-1-{3-[(2-dimethylamino-ethyl)-methyl-amino]-phenyl}-propenone]
[2]
  Inhibition of DHODH: 23%

## CN(C)CCN(C)c1cc(Br)cc(/C=C/C(=O)c2ccccc2CN(C)C)c1 [B118, (E)-3-{3-Bromo-5-[(2-dimethylamino-ethyl)-methyl-amino]-phenyl}-1-(2-dimethylaminomethyl-phenyl)-propenone]
[1]; Plasmodium falciparum, dose-response curve FIG. 6
  times more potent than LicA: 40

## Cc1ccccc1-c1ccc(N2CCN(C)CC2)c(/C=C/C(=O)c2cccc(NC(=O)CN(C)C)c2)c1 [B211, 2-Dimethylamino-N-(3-{3-[2′-methyl-4-(4-methyl-piperazin-1-yl)-biphenyl-3-yl]-(E)-acryloyl}-phenyl)-acetamide]
[1]
  IC50: 0.7 µM

## CCCCN(CCCC)c1cccc(/C=C/C(=O)c2ccccc2NCCN(C)C)c1 [B041, (E)-3-(3-Dibutylamino-phenyl)-1-[2-(2-dimethylamino-ethylamino)-phenyl]-propenone]
S. aureus ATCC29213; S. aureus ATCC29213
  MIC (time-kill curve figure): 9.4 µM (≈ 3.96 µg/mL)
  dependence of the bactericidal action: primarily dependent on incubation time
S. aureus ATCC29213
  bactericidal or bacteriostatic (time-kill curve): bactericidal
[4]
  MIC: 4.7 µM (≈ 1.98 µg/mL)
Eschericia coli ESS
  MIC: 300.0 µM (≈ 126 µg/mL)
[5]
  MIC: 9.4 µM (≈ 3.96 µg/mL)
[11]
  activity against anaerobic bacteria: activity against all microorganisms within the test panel
[6]
  MIC: 9.4 µM (≈ 3.96 µg/mL)
[10]
  MIC: 18.8 µM (≈ 7.93 µg/mL)
[7]
  MIC: 9.4 µM (≈ 3.96 µg/mL)
[8]
  MIC: 4.7 µM (≈ 1.98 µg/mL)

Reference: US7642367B2, “Diamino-functional chalcones” (Lica Pharmaceuticals A/S, priority 2002, dated 2010)
